What was measured:
Cannabinoid receptor 1 = Cannabinoid receptor 1 (Homo sapiens, UniProt P21554); experiment: (§1) cAMP Assay: CHO cells expressing human CB1 or CB2 receptors are seeded 17-24 hours prior to the experiment 50.000 cells per well in a black 96 well plate with flat clear bottom (Corning Costar #3904) in DMEM (Invitrogen No. 31331), 1×HT supplement, with 10% fetal calf serum and incubated at 5% CO2 and 37° C. in a humidified incubator. The growth medium was exchanged with Krebs Ringer Bicarbonate buffer with 1 mM IBMX and incubated at 30° C. for 30 min. Compounds were added to a final assay volume of 100 μl and incubated for 30 min at 30° C. Using the cAMP-Nano-TRF detection kit the assay (Roche Diagnostics) was stopped by the addition of 50 μl lysis reagent (Tris, NaCl, 1.5% Triton X100, 2.5% NP40, 10% NaN3) and 50 μl detection solutions (20 μM mAb Alexa700-cAMP 1:1, and 48 μM Ruthenium-2-AHA-cAMP) and shaken for 2 h at room temperature. The time-resolved energy transfer is measured by a TRF reader (Evotec Technologies GmbH), equipped with a ND:YAG laser as excitation source. The plate is measured twice with the excitation at 355 nm and at the emission with a delay of 100 ns and a gate of 100 ns, total exposure time 10 s at 730 (bandwidth 30 nm) or 645 nm (bandwidth 75 nm), respectively.
Cannabinoid receptor 2 = Cannabinoid receptor 2 (Homo sapiens, UniProt P34972); experiment: as §1
Chain of Cannabinoid receptor 2 (P34972 whole entry): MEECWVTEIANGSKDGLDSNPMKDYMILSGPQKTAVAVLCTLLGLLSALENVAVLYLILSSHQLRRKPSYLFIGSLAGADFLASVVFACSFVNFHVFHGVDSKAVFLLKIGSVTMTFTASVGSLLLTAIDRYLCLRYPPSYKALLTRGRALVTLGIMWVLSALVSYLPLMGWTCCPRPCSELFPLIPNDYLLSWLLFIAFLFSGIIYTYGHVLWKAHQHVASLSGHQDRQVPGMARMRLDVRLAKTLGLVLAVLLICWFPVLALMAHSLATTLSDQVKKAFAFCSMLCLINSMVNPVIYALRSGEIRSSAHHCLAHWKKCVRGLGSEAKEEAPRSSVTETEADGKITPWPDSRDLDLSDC

Chain of Cannabinoid receptor 1 (P21554 whole entry): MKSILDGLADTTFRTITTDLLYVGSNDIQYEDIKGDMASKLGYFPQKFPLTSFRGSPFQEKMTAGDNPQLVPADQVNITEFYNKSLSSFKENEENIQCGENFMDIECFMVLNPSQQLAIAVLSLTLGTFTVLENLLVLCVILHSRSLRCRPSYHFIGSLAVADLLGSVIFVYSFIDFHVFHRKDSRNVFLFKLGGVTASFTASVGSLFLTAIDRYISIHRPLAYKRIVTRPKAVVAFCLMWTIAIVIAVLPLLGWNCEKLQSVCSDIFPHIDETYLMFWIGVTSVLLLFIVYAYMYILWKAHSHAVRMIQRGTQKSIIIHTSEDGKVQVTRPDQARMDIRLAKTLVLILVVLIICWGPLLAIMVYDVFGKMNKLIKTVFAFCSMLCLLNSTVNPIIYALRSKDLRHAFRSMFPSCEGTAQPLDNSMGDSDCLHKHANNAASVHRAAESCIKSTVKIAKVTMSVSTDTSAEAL

SMILES | EC50 (Cannabinoid receptor 1) [nM] | EC50 (Cannabinoid receptor 2) [nM]
Cc1nonc1Cn1nnc2c(-c3ccc(F)nc3)nc(C(C)(C)C)nc21 | > 10000 | 639
Cn1nccc1-c1nc(C(C)(C)C)nc2c1nnn2CCC(F)(F)F | > 10000 | 131
